Assay results: patent publication US4468469A, “Substituted phenylacetic acids and salts as TBP blocking agents in iodothyronine immunoassays” (Miles Laboratories, Inc., priority 1982, dated 1984)
Like-named read-outs stand apart in the source and are kept apart here.

Legend:
[1] = system: antiserum to thyroxine / phosphodiesterase; assay: Enzyme substrate-labeled immunoassay for thyroxine; format: biochemical; conditions: 75 μl of 60 mM fenclofenac
Method: The following reagents were assembled:
Reagent A: 50 mM Bicine buffer with 0.1% sodium azide, pH 8.5
Reagent B: 60 mM fenclofenac in 0.5N sodium hydroxide
Reagent C: thyroxine standards with concentrations of 0, 2, 4, 6, 8, 10, 12, 16 and 20 μg/dl prepared by adding thyroxine (Sigma) to thyroxine free serum.
Reagent D: antibody/enzyme reagent containing 50 μl antiserum per ml and 0.12 units per ml of phosphodiesterase (Sigma, Type VII) in Bicine buffer.
Reagent E: 1.24 μM of the labeled conjugate (Part A above) in 5 mM formate, 0.1% sodium azide buffer, pH 3.5.
The assay protocol involved adding 75 μl of Reagent B and 0.5 ml of Reagent A to a cuvette, followed by 75 μl of an appropriate Reagent C and another 0.5 ml of Reagent A, and finally 75 μl of Reagent D and a third 0.5 ml of Reagent A. After a 1 hour incubation at room temperature, the assay reaction was started by adding 75 μl of Reagent E and 0.5 ml of Reagent A to the cuvette. The fluorescence (excitation=360 nm, emission=450 nm) was measured 20 minutes after addition of Reagent E.

[2] = system: serum proteins (thyroxine binding protein, TBP); assay: Dissociation of thyroxine from human serum, first experiment (Sephadex LH-20 column, pH 6.5)
Method: Approximately 3 milliliters (ml) of human serum was allowed to equilibrate with radioactive iodine-labeled thyroxine (^125 I-thyroxine obtained from Amersham-Searle, Arlington Heights, Ill., USA) for about 8 hours.
Then 100 microliter (μl) aliquots of this serum were combined with 300 μl aliquots of 0.1 molar (M) sodium phosphate buffer, pH 6.5, containing various concentrations of fenclofenac (British Pat. No. 1,308,327; example 6). Then 180 μl aliquots of each of these mixtures were applied to 2 ml columns of Sephadex LH-20 (Pharmacia Fine Chemicals, Piscataway, N.J. USA) equilibrated with 0.1M sodium phosphate buffer, pH 6.5. The radioactivity on the columns was measured and the columns were washed with 5 ml of the buffer. The radioactivity of each column was measured again and the results (shown below in Table 1) used as estimates of thyroxine dissociated from serum proteins.

[3] = Fluorescence and fluorescence quenching studies (SLFIA conditions); conditions: 10 mM fenclofenac; excitation 400 nm, emission 450 nm, 50 mM Bicine buffer pH 8.3
Method: Fluorescence measurements were conducted in 50 mM Bicine buffer (N,N-bis-(2-hydroxyethyl)glycine, Calbiochem-Behring, LaJolla, Calif., USA), pH 8.3, using an Aminco Bowman Fluorometer (American Instruments, Silver Springs, Md., USA), excitation set at 400 nm and emission at 450 nm, which are the fluorescence conditions for the β-galactosyl-umbelliferone enzyme substrate-labeled fluorescent immunoassay (SLFIA) described in U.S. Pat. No. 4,279,992.
Quenching studies were performed by measuring the fluorescence of a 1.3 μM solution of 2-[7-hydroxy-3-carboxamidocoumarin]ethanol (U.S. Pat. No. 4,273,715) in the presence of various levels of fenclofenac. The ratios of observed fluorescence (F) to fluorescence in the absence of fenclofenac (Fo) versus fenclofenac concentration were calculated and are presented in Table 6.

apoglucose oxidase = apoglucose oxidase (Aspergillus niger, UniProt P13006); assay: Activation of apoglucose oxidase by FAD-thyroxine conjugate; format: biochemical; conditions: 5.5 min, pH 7; for activity at 160 µM: 0.16 mM fenclofenac; for activity at 310 µM: 0.31 mM fenclofenac; for activity at 630 µM: 0.63 mM fenclofenac; for activity at 1250 µM: 1.25 mM fenclofenac; for activity at 2500 µM: 2.5 mM fenclofenac; for activity at 5000 µM: 5.0 mM fenclofenac; for activity at 10000 µM: 10.0 mM fenclofenac
Sequence of apoglucose oxidase (P13006 17-605): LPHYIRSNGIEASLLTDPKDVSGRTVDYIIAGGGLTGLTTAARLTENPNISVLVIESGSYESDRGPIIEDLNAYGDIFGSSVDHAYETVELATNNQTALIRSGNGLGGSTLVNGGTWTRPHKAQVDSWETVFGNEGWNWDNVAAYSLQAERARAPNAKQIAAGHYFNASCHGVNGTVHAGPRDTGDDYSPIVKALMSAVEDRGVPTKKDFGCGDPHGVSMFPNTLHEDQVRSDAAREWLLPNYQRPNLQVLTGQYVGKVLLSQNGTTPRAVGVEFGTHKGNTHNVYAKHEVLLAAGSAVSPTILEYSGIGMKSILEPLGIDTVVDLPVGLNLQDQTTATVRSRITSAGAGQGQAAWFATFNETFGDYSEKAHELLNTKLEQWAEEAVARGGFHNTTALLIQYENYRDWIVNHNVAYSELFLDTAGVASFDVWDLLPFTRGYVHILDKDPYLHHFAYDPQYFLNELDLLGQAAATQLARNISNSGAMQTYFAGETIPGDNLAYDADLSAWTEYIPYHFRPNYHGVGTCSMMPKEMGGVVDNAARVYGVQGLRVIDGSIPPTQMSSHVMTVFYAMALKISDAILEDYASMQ
Method: In a second study, the effect of fenclofenac on the activation of apoglucose oxidase by an FAD-iodothyronine (T-4) conjugate was investigated. The activation of apoglucose oxidase was set up with different concentrations of fenclofenac and performed at 37° C. To two sets of assays containing 96 mM sodium phosphate, pH 7.0, 95 mM glucose, 1.0 mM sodium dichlorohydroxybenzene sulfonate (DHSA), 19 μg/ml peroxidase and various concentrations of sodium fenclofenac were added apoglucose oxidase, 4-aminoantipyrine, and anti(glucose oxidase) at final concentrations of 100 nM, 100 μM, 5 μl/ml respectively or 2.1 nM final concentration of an FAD-thyroxine conjugate. After preincubating the assay media for 5 min at 37° C. the FAD-thyroxine conjugate or the apoglucose oxidase reagent was added to the appropriate assay set. The absorbance at 520 nm was recorded after a 330 second incubation. The data are presented as a percentage of the absorbance recorded when no fenclofenac is present.

antibody to thyroxine = assay: Effect on the binding of 125I-thyroxine with antibody (polyethyleneglycol precipitation); conditions: for Percent 125I-Thyroxine in Precipitate: percent of radioactivity without fenclofenac, 180 min
Method: A series of antibody binding reactions were set up in 0.1M sodium phosphate buffer, pH 6.5, to give final volumes of 0.6 ml containing various concentrations of fenclofenac. Each reaction contained ^125 I-thyroxine, 20 μl of normal rabbit immunoglobulin, and 2 μl of antibody to thyroxine. The mixtures were incubated at room temperature for about 3 hours and then 400 μl of 50% (w/v) polyethyleneglycol was added. The precipitated proteins were collected by centrifugation and the radioactivity in each precipitate was measured. The results are shown in Table 2 as percent of the radioactivity in the precipitate without fenclofenac.

[4] = read-out: percentage of the absorbance at 520 nm without fenclofenac, Started with Apoenzyme Addition
[5] = read-out: percentage of the absorbance at 520 nm without fenclofenac, Started with Conjugate Addition

SMILES: O=C(O)Cc1ccccc1Oc1ccc(Cl)cc1Cl [Fenclofenac, 2-(2,4-dichlorophenoxy)phenylacetic acid]
- fluorescence units ([1]; thyroxine standard 0 μg/dl, excitation 360 nm, emission 450 nm): 24.9 fluorescence units
- fluorescence units ([1]; thyroxine standard 2 μg/dl): 25.5 fluorescence units
- fluorescence units ([1]; thyroxine standard 4 μg/dl): 26.4 fluorescence units
- fluorescence units ([1]; thyroxine standard 6 μg/dl): 27.2 fluorescence units
- fluorescence units ([1]; thyroxine standard 8 μg/dl): 26.7 fluorescence units
- fluorescence units ([1]; thyroxine standard 10 μg/dl): 27.1 fluorescence units
- fluorescence units ([1]; thyroxine standard 12 μg/dl): 30.0 fluorescence units
- fluorescence units ([1]; thyroxine standard 16 μg/dl): 30.1 fluorescence units
- fluorescence units ([1]; thyroxine standard 20 μg/dl): 30.8 fluorescence units
- Percent Thyroxine Dissociated ([2]; 0.25 mM fenclofenac): 50%
- Percent Thyroxine Dissociated ([2]; 0.50 mM fenclofenac): 72%
- Percent Thyroxine Dissociated ([2]; 1.0 mM fenclofenac): 79%
- Percent Thyroxine Dissociated ([2]; 2.0 mM fenclofenac): 98%
- Percent Thyroxine Dissociated ([2]; 5.0 mM fenclofenac): 100%
- own fluorescence [3]: did not exhibit any fluorescence
- activity at 160 µM (apoglucose oxidase; [4]): 100%
- activity at 160 µM (apoglucose oxidase; [5]): 97%
- activity at 310 µM (apoglucose oxidase; [4]): 98%
- activity at 310 µM (apoglucose oxidase; [5]): 92%
- activity at 630 µM (apoglucose oxidase; [4]): 97%
- activity at 630 µM (apoglucose oxidase; [5]): 94%
- activity at 1250 µM (apoglucose oxidase; [4]): 93%
- activity at 1250 µM (apoglucose oxidase; [5]): 95%
- activity at 2500 µM (apoglucose oxidase; [4]): 90%
- activity at 2500 µM (apoglucose oxidase; [5]): 85%
- activity at 5000 µM (apoglucose oxidase; [4]): 78%
- activity at 5000 µM (apoglucose oxidase; [5]): 74%
- activity at 10000 µM (apoglucose oxidase; [4]): 53%
- activity at 10000 µM (apoglucose oxidase; [5]): 54%
- inhibition at 2000 µM (apoglucose oxidase; about 2 mM fenclofenac, FAD-thyroxine conjugate, read-out: colorimetric response diminished): 8 to 10%
- Percent 125I-Thyroxine in Precipitate (antibody to thyroxine; 0.2 mM fenclofenac): 97%
- Percent 125I-Thyroxine in Precipitate (antibody to thyroxine; 0.5 mM fenclofenac): 80%
- Percent 125I-Thyroxine in Precipitate (antibody to thyroxine; 1.0 mM fenclofenac): 69%
- Percent 125I-Thyroxine in Precipitate (antibody to thyroxine; 2.5 mM fenclofenac): 61%
- Percent 125I-Thyroxine in Precipitate (antibody to thyroxine; 5.0 mM fenclofenac): 43%
- inhibition of the antibody binding reaction (antibody to thyroxine; concentrations below about 2.5 mM): about 40%
- inhibition of the antibody binding reaction (antibody to thyroxine; concentrations below about 5 mM): about 50%
